According to patent publication US4537773A, “α-Aminoboronic acid derivatives” (E. I. Du Pont de Nemours and Company, priority 1983, dated 1985):
pIC50: −log10 of the molar value. Where a name gives a salt, the structure may show the parent alone.

How the values were obtained:
[1] = tested on: Leaf Hopper; assay: Insecticidal activity, leaf hopper; assay type: in vivo; conditions: application rate of 5 lb./acre
[2] = tested on: Ant; assay: Insecticidal activity, ant feeding; assay type: in vivo; conditions: application rate of 5 lb./acre
[3] = tested on: Bollworm; assay: Insecticidal activity, bollworm; assay type: in vivo; conditions: application rate of 5 lb./acre
[4] = tested on: Mite; assay: Insecticidal activity, mite; assay type: in vivo; conditions: application rate of 5 lb./acre
[5] = tested on: Bean aphid; assay: Insecticidal activity, bean aphid; assay type: in vivo; conditions: application rate of 5 lb./acre
[6] = biological target: Human enkephalin-degrading aminopeptidase (HEDA); assay: IC50 with human enkephalin-degrading aminopeptidase; assay type: biochemical; conditions: incubated at 37° for 2 hours, pH 7.8, substrate leu-enkephalin, HPLC
Excerpt: An IC50 value represents an approximation of the concentration of enzyme inhibitor required to inhibit enzyme activity by fifty percent. These values represent acceptable approximations of the inhibition constant KI, the dissociation constant in the following equation: [formula] where [E] is the concentration of enzyme, [I] is the concentration of inhibitor and [EI] is the concentration of enzyme/inhibitor complex. Determination of IC50 values for LAPC and LAPM was accomplished by spectrophotometrically or fluorometrically following the rate of formation of p-nitroaniline or β-naphthylamine from hydrolysis of (L)-leucine-p-nitroanilide or (L)-leucine-β-napthylamide, respectively, in the presence of active enzyme. IC50 values for HEDA were determined by monitoring, via high pressure liquid chromatography, the formation of […]-enkephalin from leu-enkephalin. […] At this point, 15 μL of a 10 mM solution of leu-enkephalin, acetic acid salt in 2 mM phosphate buffer, pH 7.8, were added to each sample mixture. […] Detection was by ultraviolet absorption at 215 nm. A ratio of a peak corresponding to ([…])-enkephalin at about […] and a peak corresponding to leu-enkephalin at about 3.9 min. indicated reaction progress. The rate of increase of this ratio corresponded to the rate of enzyme hydrolysis of substrate leu-enkephalin.

[7] = biological target: T1, Leucine aminopeptidase (cytosolic) (LAPC) (Sus scrofa, UniProt P28839); assay: IC50 with leucine aminopeptidase (cytosolic); assay type: biochemical, hog; conditions: 112 hours at 0°-5°, pH 8.5, substrate (L)-leucine-p-nitroanilide, absorption at 405 nm
T1 construct: (LAPC) from hog kidney; from tissue; host or cells: hog kidney
T1 sequence (P28839 33-519 limits assumed): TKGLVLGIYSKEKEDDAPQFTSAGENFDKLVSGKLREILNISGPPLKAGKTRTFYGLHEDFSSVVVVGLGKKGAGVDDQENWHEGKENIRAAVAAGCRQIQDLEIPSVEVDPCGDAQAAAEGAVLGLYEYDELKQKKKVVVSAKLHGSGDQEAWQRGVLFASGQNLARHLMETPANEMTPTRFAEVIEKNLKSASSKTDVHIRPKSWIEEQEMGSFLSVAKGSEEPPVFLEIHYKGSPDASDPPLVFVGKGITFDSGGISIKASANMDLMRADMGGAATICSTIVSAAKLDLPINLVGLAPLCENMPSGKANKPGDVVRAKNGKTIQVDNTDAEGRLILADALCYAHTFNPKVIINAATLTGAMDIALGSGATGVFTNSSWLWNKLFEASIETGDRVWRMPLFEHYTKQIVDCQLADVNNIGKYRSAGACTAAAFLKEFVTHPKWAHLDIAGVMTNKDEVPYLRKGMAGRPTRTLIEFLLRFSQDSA
Excerpt: (§1) An IC50 value represents an approximation of the concentration of enzyme inhibitor required to inhibit enzyme activity by fifty percent. These values represent acceptable approximations of the inhibition constant KI, the dissociation constant in the following equation: [formula] where [E] is the concentration of enzyme, [I] is the concentration of inhibitor and [EI] is the concentration of enzyme/inhibitor complex.
(§2) Determination of IC50 values for LAPC and LAPM was accomplished by spectrophotometrically or fluorometrically following the rate of formation of p-nitroaniline or β-naphthylamine from hydrolysis of (L)-leucine-p-nitroanilide or (L)-leucine-β-napthylamide, respectively, in the presence of active enzyme. IC50 values for HEDA were determined by monitoring, via high pressure liquid chromatography, the formation of destyr-enkephalin from leu-enkephalin.
Assay mixtures were prepared, containing 10×10^-8 M LAPC, 1 mg/mL BSA, 0.025M MgCl2 and 0.01M tris-HCl buffer, pH 8.5, in a total volume of 2.7 mL. Varying amounts of selected compounds 5, dissolved in the same buffer, were added to make a final volume of 3.0 mL. After storage for 112 hours at 0°-5°, 1 mL of this mixture was treated with 25 μL of a 0.1M (L)-leucine-p-nitroanilide in dimethylsulfoxide, and the rate of increase of absorption at 405 nm was measured. IC50 values were calculated as in Example 26, above.

[8] = biological target: T2, Leucine aminopeptidase (Microsomal) (LAPM) (Sus scrofa, UniProt P15145); assay: IC50 with leucine aminopeptidase (microsomal); assay type: biochemical, hog; conditions: 72 hours at 0°-5°, pH 7.2, substrate (L)-leucine-β-napthylamide, fluorescence
T2 construct: (LAPM) from hog kidney; from tissue; host or cells: hog kidney
T2 sequence (P15145 1-963): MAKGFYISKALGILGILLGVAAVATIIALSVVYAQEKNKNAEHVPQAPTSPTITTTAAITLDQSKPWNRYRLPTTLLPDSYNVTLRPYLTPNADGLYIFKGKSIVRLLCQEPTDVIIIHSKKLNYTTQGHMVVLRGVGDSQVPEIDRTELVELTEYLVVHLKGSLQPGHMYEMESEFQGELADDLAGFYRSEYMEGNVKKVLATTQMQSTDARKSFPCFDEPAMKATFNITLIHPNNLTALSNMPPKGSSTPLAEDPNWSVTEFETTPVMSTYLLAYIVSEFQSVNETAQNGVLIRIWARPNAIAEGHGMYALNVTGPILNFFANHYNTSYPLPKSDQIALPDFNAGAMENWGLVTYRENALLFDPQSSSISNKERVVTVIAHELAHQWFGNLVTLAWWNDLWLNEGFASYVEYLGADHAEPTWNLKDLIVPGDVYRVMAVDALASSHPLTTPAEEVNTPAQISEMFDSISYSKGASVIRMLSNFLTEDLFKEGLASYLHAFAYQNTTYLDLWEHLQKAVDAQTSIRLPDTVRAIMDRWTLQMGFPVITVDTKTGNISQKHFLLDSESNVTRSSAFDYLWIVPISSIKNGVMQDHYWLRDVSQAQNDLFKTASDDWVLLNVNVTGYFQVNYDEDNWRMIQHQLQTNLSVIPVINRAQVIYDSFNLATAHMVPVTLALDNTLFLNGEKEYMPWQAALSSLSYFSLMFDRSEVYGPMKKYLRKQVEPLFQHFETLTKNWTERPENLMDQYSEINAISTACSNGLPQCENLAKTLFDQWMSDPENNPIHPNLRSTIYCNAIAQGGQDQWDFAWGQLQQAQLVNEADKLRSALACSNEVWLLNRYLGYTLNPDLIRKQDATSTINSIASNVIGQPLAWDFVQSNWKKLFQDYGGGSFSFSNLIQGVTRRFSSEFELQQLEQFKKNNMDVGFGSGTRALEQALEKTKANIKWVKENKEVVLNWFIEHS
Excerpt: as §1, §2
Assay mixtures were prepared containing 0.613 μg LAPM, 10 μg/mL bovine serum albumin (BSA). 0.1M phosphate buffer, pH 7.2, in a total volume of 2.7 mL. Measured amounts of compounds 5 to be tested for inhibitory activity were added in additional 0.1M phosphate buffer to a total volume of 3 mL. After 72 hours at 0°-5°, 1 mL of the enzyme/inhibitor mixture was treated with 4 μL of 0.2M (L)-leucine-β-napthylamide in dimethylsulfoxide, and the rate of increase of fluorescence at 410 nm, while exciting at 310 nm. was measured. Control experiments were performed identically, except no inhibitor was present. The concentration of the selected compound 5 observed to decrease reaction rates by one-half was used to determine the value of IC50 for each compound. This was accomplished by subtracting one-half the concentration of enzyme present in the sample mixtures (1.6×10^-9 M) from the inhibitor concentration observed to decrease reaction rates by one-half.

[9] = biological target: α-chymotrypsin (Bos taurus, UniProt P00766); conditions: Matteson et al., J. Am. Chem. Soc. 103:5241 (1981); cited from earlier work
[10] = tested on: subtilisin; conditions: Philipp, et al., FEBS Letters 133:36 (1971); cited from earlier work

| pIC50 [6] | pIC50 [7] | pIC50 [8] | Compound | further results |
| --- | --- | --- | --- | --- |
| – | – | – | CC(C)CB1OC(C)(C)C(C)(C)O1 [2 (R=CH3 CH(CH3)2), 4,4,5,5-tetramethyl-2-(2-methylpropyl)-1,3,2-dioxaborolane] | Leaf Hopper, % control [1]: 50% |
| – | – | – | CB1OC(C)(C)C(C)(C)O1 [2 (R=CH3), 2,4,4,5,5-pentamethyl-1,3,2-dioxaborolane] | Ant Feeding, % control [2]: 31% |
| – | – | – | CCC(C)B1OC(C)(C)C(C)(C)O1 (stereo not drawn) [2 (R=CH(CH3)C2 H5), 2-(1-methylpropyl)-4,4,5,5-tetramethyl-1,3,2-dioxaborolane] | Bollworm, % control [3]: 20% |
| – | – | – | CC1(C)OB(Cc2ccccc2)OC1(C)C [2 (R=CHC6 H5), 4,4,5,5-tetramethyl-2-(phenylmethyl)-1,3,2-dioxaborolane] | Mite, % control [4]: 70% |
| – | – | – | CC(C)CC(Cl)B1OC(C)(C)C(C)(C)O1 (stereo not drawn) [3 (R=CH3 CH(CH3)2), 2-(1-chloro-3-methylbutyl)-4,4,5,5-tetramethyl-1,3,2-dioxaborolane] | Mite, % control [4]: 64% |
| – | – | – | CCC(C)C(Cl)B1OC(C)(C)C(C)(C)O1 (stereo not drawn) [3 (R=CH(CH3)C2 H5), 2-(1-chloro-2-methylbutyl)-4,4,5,5-tetramethyl-1,3,2-dioxaborolane] | Bean aphid, % control [5]: 39% |
| – | – | – | CC1(C)OB(C(Cl)Cc2ccccc2)OC1(C)C (stereo not drawn) [3 (R=CHC6 H5), 2-(1-chloro-2-phenylethyl)-4,4,5,5-tetramethyl-1,3,2-dioxaborolane] | Bean aphid, % control [5]: 48% |
| 8.28 | 8.00 | 9.70 | CC1(C)OB(C(N)Cc2ccccc2)OC1(C)C (stereo not drawn) [5 (R=CH2 C6 H5), 4,4,5,5-tetramethyl-α-(phenylmethyl)-1,3,2-dioxoborolane-2-methanamine, trifluoroacetic acid salt] | – |
| 8.13 | 6.82 | 8.92 | CC(C)CC(N)B1OC(C)(C)C(C)(C)O1 (stereo not drawn) [5 (R=CH2 CH(CH3)2), 3-methyl-1-(4,4,5,5-tetramethyl-1,3,2-dioxaborolane-2-yl)-1-butamine, trifluoroacetic acid salt] | – |
| 7.15 | 4.52 | 8.19 | CC(N)B1OC(C)(C)C(C)(C)O1 (stereo not drawn) [5 (R=CH3), α,4,4,5,5,pentamethyl-1,3,2-dioxoborolane-2-methanamine, trifluoroacetic acid salt] | – |
| 7.38 | 7.15 | 8.67 | CC(C)C(N)B1OC(C)(C)C(C)(C)O1 (stereo not drawn) [5 (R=CH(CH3)2), 4,4,5,5-tetramethyl-α-(1-methylethyl)-1,3,2-dioxaborolane-2-methanamine, trifluoroacetic acid salt] | – |
| 7.39 | 7.52 | 8.66 | CCC(C)C(N)B1OC(C)(C)C(C)(C)O1 (stereo not drawn) [5 (R=CH(CH3)C2 H5), 4,4,5,5-tetramethyl-α-(1-methylpropyl)-1,3,2-dioxaborolane-2-methanamine, trifluoroacetic acid salt] | – |
| – | – | – | CC(=O)NC(Cc1ccccc1)B(O)O (stereo not drawn) [IV] | inhibition of α-chymotrypsin [9]: observed to inhibit; inhibition of subtilisin [10]: inhibited |
